Experimental data published in patent US11072581B2, “N-acyl-arylsulfonamide derivatives as aminoacyl-tRNA synthetase inhibitors” (Oxford Drug Design Limited, priority 2015, dated 2021).

Assays:
[1] = target: T1, EcoIRS (isoleucyl-tRNA synthetase from Escherichia coli) (Escherichia coli, UniProt P00956); experiment: aaRS aminoacylation assay (ATP consumption), EcoIRS; type: biochemical; details: i.a. = inactive at a concentration below 50 uM
T1 construct: made in house; host or cells: Escherichia coli M15
Method: (§1) The compounds have been tested for antibacterial activity in vitro as aminoacyl-tRNA synthetases (aaRS) inhibitors following the following process.
(§2) Leucyl-, valyl- and isoleucyl-tRNA synthetases (LRS, VRS and IRS, respectively) from Escherichia coli (Eco) and Staphylococcus aureus (Sau).
(§3) Escherichia coli M15 cells transformed with plasmid pQE-60, or pQE-70, containing the open-reading frame sequence of one targeted aaRS were induced with 1 mM IPTG (Isopropyl β-D-1-thiogalactopyranoside) for 3 h at 37° C. Bacterial cells were harvested and lysed with 20 mM NaH2PO4 (pH 8.0), 200 mM NaCl, 10 mM imidazole and protease inhibitor cocktail (Roche). Pathogenic aaRS was purified by nickel affinity standard chromatography. Protein concentration was determined by spectrophotometry.
(§4) tRNA^Leu, tRNA^Val and tRNA^Ile from E. coli and S. aureus were transcribed in vitro for 4 h at 37° C. using T7 RNA polymerase. Transcription reaction contained 40 mM Tris-HCl (pH 8.0), 22 mM MgCl2, 1 mM spermidine, 5 mM DTT, 0.01% Triton X-100, 4 mM GTP, 4 mM ATP, 4 mM UTP, 4 mM CTP, 16 mM GMP, […] T7 RNA polymerase and 150 μg BstNI digested plasmid. Once finished, the reaction was applied on a 6% polyacrylamide-8 M urea denaturing gel to purify the transcribed tRNA and discard any impurities. Purified tRNA was quantified with Nanodrop 2000 (Thermo Scientific).
(§5) The aminoacylation reaction catalyzed by aminoacyl-tRNA synthetases (aaRS) takes place in two steps. In the first step, aaRS activates its cognate amino acid with ATP; and in the second step the activated amino acid is loaded to its corresponding tRNA. This reaction can be summarized as follows: ARS+aa+ATP=ARS-aa-AMP+PPi ARS-aa-AMP+tRNA=aa-tRNA+AMP+ARS [2] (ARS, Aminoacyl-tRNA synthetase; aa, amino acid; ARS-aa-AMP, enzyme-bound to aminoacyl-adenylate; aa-tRNA, aminoacyl-tRNA).
(§6) The activity of the pathogenic aaRSs was monitored by measuring the ATP consumption rate, since this consumption is directly proportional to the activity of the aaRS. If the tested compound, at a single point concentration of 50 μM, is inhibiting the aminoacylation reaction, there is a decrease in the ATP consumption, compared to the control reaction without compound, allowing the calculation of an inhibition ratio.
(§7) When the inhibition ratio for a given compound was above 80%, IC50 determination was performed with the same enzymatic assay (using the commercial kit Kinase RR from BioThema AB, Sweden) in the presence of serial dilutions of inhibitor. Known inhibitors of LRS, VRS or IRS were used as a positive control of the assay. The IC50 was calculated based on nonlinear regression analysis.

[2] = target: T2, EcoVRS (valyl-tRNA synthetase from Escherichia coli) (Escherichia coli, UniProt P07118); experiment: aaRS aminoacylation assay (ATP consumption), EcoVRS; type: biochemical; details: i.a. = inactive at a concentration below 50 uM
T2 construct: made in house; host or cells: Escherichia coli M15
Method: as §1, §2, §3, §4, §5, §6, §7

[3] = target: T3, SauLRS (leucyl-tRNA synthetase from Staphylococcus aureus) (Staphylococcus aureus, UniProt Q2FXH2); experiment: aaRS aminoacylation assay (ATP consumption), SauLRS; type: biochemical; details: i.a. = inactive at a concentration below 50 uM; for IC50: read-out: IC50 SauLRS
T3 construct: made in house; host or cells: Escherichia coli M15
T3 sequence (Q2FXH2 1-805): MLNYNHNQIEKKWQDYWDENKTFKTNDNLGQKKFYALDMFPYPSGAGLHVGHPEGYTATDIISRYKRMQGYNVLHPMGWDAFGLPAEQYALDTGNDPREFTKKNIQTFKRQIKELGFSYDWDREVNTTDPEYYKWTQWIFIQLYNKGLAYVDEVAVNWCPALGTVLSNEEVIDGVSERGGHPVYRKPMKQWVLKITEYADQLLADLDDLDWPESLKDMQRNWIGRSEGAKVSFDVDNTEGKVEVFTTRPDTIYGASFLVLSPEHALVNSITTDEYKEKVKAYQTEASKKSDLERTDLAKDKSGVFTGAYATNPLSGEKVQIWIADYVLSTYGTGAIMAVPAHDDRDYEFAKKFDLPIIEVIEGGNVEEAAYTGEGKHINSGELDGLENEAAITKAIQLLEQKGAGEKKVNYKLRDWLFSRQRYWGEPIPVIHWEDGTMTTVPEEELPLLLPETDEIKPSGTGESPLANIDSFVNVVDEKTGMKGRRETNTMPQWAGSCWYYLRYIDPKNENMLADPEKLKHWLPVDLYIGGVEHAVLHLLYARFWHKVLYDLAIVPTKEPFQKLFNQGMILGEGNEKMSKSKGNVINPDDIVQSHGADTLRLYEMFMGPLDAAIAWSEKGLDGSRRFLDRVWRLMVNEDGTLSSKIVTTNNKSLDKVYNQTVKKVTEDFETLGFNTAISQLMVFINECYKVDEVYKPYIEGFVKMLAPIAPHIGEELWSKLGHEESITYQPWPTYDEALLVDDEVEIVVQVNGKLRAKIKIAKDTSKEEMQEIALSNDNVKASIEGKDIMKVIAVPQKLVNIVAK
Method: as §1, §2, §3, §4, §5, §6, §7

T1 sequence (P00956 whole entry): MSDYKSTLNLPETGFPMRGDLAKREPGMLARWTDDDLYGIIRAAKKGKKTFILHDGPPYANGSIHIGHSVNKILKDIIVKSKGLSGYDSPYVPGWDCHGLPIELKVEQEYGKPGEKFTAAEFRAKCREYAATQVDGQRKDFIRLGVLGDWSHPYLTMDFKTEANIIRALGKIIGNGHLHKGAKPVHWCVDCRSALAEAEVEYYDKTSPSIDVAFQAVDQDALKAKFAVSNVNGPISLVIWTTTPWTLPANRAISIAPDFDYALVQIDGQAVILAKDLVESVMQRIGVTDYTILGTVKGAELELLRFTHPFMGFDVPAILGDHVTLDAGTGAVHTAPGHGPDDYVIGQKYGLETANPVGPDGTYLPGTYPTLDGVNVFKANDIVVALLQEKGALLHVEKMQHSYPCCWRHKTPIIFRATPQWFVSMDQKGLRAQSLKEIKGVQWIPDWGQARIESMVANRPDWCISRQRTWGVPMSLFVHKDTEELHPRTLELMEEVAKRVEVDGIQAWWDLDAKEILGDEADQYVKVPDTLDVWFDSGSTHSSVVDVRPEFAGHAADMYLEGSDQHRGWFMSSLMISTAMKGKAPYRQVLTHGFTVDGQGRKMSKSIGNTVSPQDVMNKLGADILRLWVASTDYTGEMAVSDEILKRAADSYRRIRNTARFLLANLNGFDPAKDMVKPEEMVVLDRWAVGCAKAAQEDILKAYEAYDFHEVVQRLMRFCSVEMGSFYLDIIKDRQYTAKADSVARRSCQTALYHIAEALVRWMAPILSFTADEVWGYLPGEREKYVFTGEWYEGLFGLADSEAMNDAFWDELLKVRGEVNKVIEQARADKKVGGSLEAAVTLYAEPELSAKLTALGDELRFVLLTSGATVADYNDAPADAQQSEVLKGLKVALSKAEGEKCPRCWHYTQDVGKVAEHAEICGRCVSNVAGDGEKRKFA
T2 sequence (P07118 whole entry): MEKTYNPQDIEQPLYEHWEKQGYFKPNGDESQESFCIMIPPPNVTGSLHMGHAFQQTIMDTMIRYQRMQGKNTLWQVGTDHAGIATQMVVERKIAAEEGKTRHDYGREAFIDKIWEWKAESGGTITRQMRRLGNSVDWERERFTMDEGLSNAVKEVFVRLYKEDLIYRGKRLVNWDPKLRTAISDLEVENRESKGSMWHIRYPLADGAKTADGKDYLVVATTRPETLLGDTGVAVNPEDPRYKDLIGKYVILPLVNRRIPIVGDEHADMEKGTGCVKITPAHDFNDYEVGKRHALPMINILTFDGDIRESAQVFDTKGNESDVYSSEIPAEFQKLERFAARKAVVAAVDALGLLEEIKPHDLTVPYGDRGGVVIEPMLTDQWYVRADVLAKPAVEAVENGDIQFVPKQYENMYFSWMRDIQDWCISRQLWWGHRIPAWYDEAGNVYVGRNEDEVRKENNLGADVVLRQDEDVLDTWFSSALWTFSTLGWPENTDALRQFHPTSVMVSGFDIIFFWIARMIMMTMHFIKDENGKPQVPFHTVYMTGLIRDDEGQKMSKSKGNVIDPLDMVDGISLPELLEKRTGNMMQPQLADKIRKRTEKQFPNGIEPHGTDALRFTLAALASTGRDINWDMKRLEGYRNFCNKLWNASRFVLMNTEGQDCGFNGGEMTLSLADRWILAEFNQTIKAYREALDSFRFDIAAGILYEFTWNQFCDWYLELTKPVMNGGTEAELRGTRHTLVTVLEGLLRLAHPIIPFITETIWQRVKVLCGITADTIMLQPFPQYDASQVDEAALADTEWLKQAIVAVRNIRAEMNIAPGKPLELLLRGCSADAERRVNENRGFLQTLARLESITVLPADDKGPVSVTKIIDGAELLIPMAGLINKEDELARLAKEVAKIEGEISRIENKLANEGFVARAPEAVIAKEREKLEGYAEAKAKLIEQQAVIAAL

## Cc1cc(-c2cccc(S(=O)(=O)NC(=O)[C@@H](N)CC3CC3)c2)nc(N)n1 [Compound 5.30]
[1]
  IC50 EcoIRS: i.a
[2]
  IC50 EcoVRS: i.a
other
  melting point: > 192 °C (dec.)
[3]
  IC50 SauLRS: i.a

## CC(C)C[C@H](N)C(=O)NS(=O)(=O)c1ccc2ccccc2c1 [Compound 5.14]
[1]
  IC50 EcoIRS: i.a
[2]
  IC50 EcoVRS: i.a
other
  melting point: 215 °C (dec.)
[3]
  IC50: 1 µM

## CC(C)C[C@H](N)C(=O)NS(=O)(=O)c1cccc2ccncc12 [Compound 5.21]
[1]
  IC50 EcoIRS: i.a
[2]
  IC50 EcoVRS: i.a
other
  melting point: 55 to 57 °C
[3]
  IC50: 3.42 µM

## Cc1cc(-c2cccc(S(=O)(=O)NC(=O)[C@@H](N)C3CC3)c2)nc(N)n1 [Compound 5.33]
[1]
  IC50 EcoIRS: i.a
[2]
  IC50 EcoVRS: i.a
other
  melting point: 158 °C (dec.)
[3]
  IC50 SauLRS: i.a

## CC(C)C[C@H](N)C(=O)NS(=O)(=O)c1cccc2c1OCCC2 [Compound 5.25]
[1]
  IC50 EcoIRS: i.a
[2]
  IC50 EcoVRS: i.a
other
  melting point: 165 °C (dec.)
[3]
  IC50: 14.1 µM

## CC(C)C[C@H](N)C(=O)NS(=O)(=O)c1cccc(-c2ccccc2)c1 [Compound 5.9]
[1]
  IC50 EcoIRS: i.a
[2]
  IC50 EcoVRS: i.a
other
  melting point: 149 °C (dec.)
[3]
  IC50: 0.65 µM

## N[C@@H](CC1CC1)C(=O)NS(=O)(=O)c1cccc(-c2ccccc2)c1 (racemic) [Compound 5.10]
[1]
  IC50 EcoIRS: i.a
[2]
  IC50 EcoVRS: i.a
other
  melting point: 214.4 °C
[3]
  IC50 SauLRS: i.a

## CC(C)C[C@H](N)C(=O)NS(=O)(=O)c1c(C(C)C)cc(C(C)C)cc1C(C)C [Compound 5.12]
[1]
  IC50 EcoIRS: i.a
[2]
  IC50 EcoVRS: i.a
other
  melting point: 217 °C
[3]
  IC50 SauLRS: i.a

## CC(C)C[C@H](N)C(=O)NS(=O)(=O)c1ccc(Oc2ccccc2)cc1 [Compound 5.2]
[1]
  IC50 EcoIRS: i.a
[2]
  IC50 EcoVRS: i.a
other
  melting point: 224 to 225 °C
[3]
  IC50: 16.3 µM

## COc1ccc2cc(S(=O)(=O)NC(=O)[C@@H](N)CC(C)C)ccc2c1 [Compound 5.17]
[1]
  IC50 EcoIRS: i.a
[2]
  IC50 EcoVRS: i.a
other
  melting point: 230 to 232 °C
[3]
  IC50: 2 µM

## CC[C@H](C)[C@H](N)C(=O)NS(=O)(=O)c1ccc2ccccc2c1 [Compound 5.15]
[1]
  IC50 EcoIRS: i.a
[2]
  IC50 EcoVRS: i.a
other
  melting point: 229.7 °C
[3]
  IC50 SauLRS: i.a

## CC(C)C[C@H](N)C(=O)NS(=O)(=O)c1ccccc1-c1ccccc1 [Compound 5.3]
[1]
  IC50 EcoIRS: i.a
[2]
  IC50 EcoVRS: i.a
other
  melting point: 143 °C (dec.)
[3]
  IC50: 14.8 µM

## CC(C)C[C@H](N)C(=O)NS(=O)(=O)c1ccc(-c2ccccc2)cc1 [Compound 5.11]
[1]
  IC50 EcoIRS: i.a
[2]
  IC50 EcoVRS: i.a
other
  melting point: 212 °C (dec.)
[3]
  IC50: 11.3 µM
